Patent publication US20030171377A1, “Antidiabetic agents” (priority 2001, published 2003)
pEC50: −log10 of the molar value.

Legend:
[1] = system: endogenous nuclear receptors in CV-1 cells; experiment: CV-1 Native Receptors Transcription Assay (MKNRCV1), Test C; format: cell-based, African green monkey; details: for MKNRCV1 % BRL @ 5 μM: 5 μM (stated in the cell); for MKNRCV1 % BRL @ 5 μM / MKNRCV1 % BRL @ 25 μM: percent activity of BRL 49653; for pEC50: Chlorocebus sabaeus, CV-1 cells, 48 hours, unit inferred
3T3-L1 preadipocytes = experiment: 3T3-L1 Adipocyte Differentiation Assay (ADPDIFF), Test A; format: cell-based; details: BODIPY lipid fluorescence, reported as % of BRL 49653 at 5 μM
Method: Cells are replenished with FBS containing media on day 5 of post-drug treatment and incubated for additional 4-6 days. Cells are stained with BODIPY a fluorescent lipophilic stain to quantitate the lipid content of the cells. The assay is optimized for a 96-well plate format. Approximately after 10 days of post-drug treatment, cells are fixed in 3% formalin solution for 15 min followed by staining with BODIPY (80 μg/ml) for 20 min at room temperature. The plate is then put through the CYTOFLUOR instrument to measure the fluorescence of BODIPY (excitation=485/20; emission=530/25).

[2] = system: CV-1 cells (FATP promoter luciferase reporter, 300 nM BRL); experiment: ANTCV1 Antagonist Transcription Assay, Test B; format: cell-based, African green monkey; details: Chlorocebus sabaeus, 25 μM test compound with 300 nM BRL, 48 hrs, % BRL inhibition, read-out: ANTCV1 INHIB @ 25 μM

pEC50 [1]	SMILES	MKNRCV1 % BRL @ 5 μM [1]	MKNRCV1 % BRL @ 25 μM [1] [% BRL]	ADPDIFF % BRL @ 5 μM (3T3-L1 preadipocytes) [% BRL]	inhibition at 25 µM [2] [%]
	Cc1oc(-c2ccccc2)nc1CCOc1ccc(C[C@@H](C(=O)O)n2cccc2)cc1	83 @ 5 μM % BRL			
5.49	Cc1oc(-c2ccccc2)nc1CCOc1ccc(C[C@@H](C(=O)NS(C)(=O)=O)n2cccc2)cc1		97	110	-30
5.48	Cc1oc(-c2ccccc2)nc1CCOc1ccc(C[C@@H](C(=O)NS(=O)(=O)c2ccccc2)n2cccc2)cc1		101	90	-117
	CCCc1nnc([C@H](Cc2ccc(OCCc3nc(-c4ccccc4)oc3C)cc2)n2cccc2)o1		0	94	84
	Cc1oc(-c2ccccc2)nc1CCOc1ccc(C[C@@H](c2nnco2)n2cccc2)cc1	37 @ 5 μM % BRL		45	49
7.22	Cc1oc(-c2ccccc2)nc1CCOc1ccc(C[C@@H](C(=O)O)n2ccc(Br)c2)cc1		85	84	-57.5
	Cc1oc(-c2ccccc2)nc1CCOc1ccc(C[C@H](C(=O)O)n2cccc2)cc1	87 @ 5 μM % BRL		96	
6.05	Cc1oc(-c2ccccc2)nc1CCOc1ccc(CC(C(=O)O)n2ccc(-c3ccccc3)c2)cc1 (centres unmarked)		54	125	29
5.33	Cc1oc(-c2ccccc2)nc1CCOc1ccc(CC(C(=O)O)n2ccc(C(=O)C3CCCCC3)c2)cc1 (centres unmarked)		83	82	-12
4.63	Cc1oc(-c2ccccc2)nc1CCOc1ccc(CC(C(=O)O)n2ccc(C(=O)C(C)C)c2)cc1 (centres unmarked)		70	120	-10
	Cc1oc(-c2ccccc2)nc1CCOc1ccc(C[C@@H](C(=O)O)n2c(C)ccc2-c2ccccc2)cc1		24	2	-3
	Cc1oc(-c2ccccc2)nc1CCOc1ccc(C[C@@H](C(=O)O)n2c(C)ccc2C)cc1		11	26	80
	CC(=O)c1c(C(C)=O)c(C)n([C@@H](Cc2ccc(OCCc3nc(-c4ccccc4)oc3C)cc2)C(=O)O)c1C		24	0	3
4.47	Cc1oc(-c2ccccc2)nc1CC#Cc1ccc(CC(C(=O)O)c2cccnc2)cc1 (centres unmarked)	49 @ 5 μM % BRL			-15
5.57	Cc1oc(-c2ccccc2)nc1CC#Cc1ccc(CC(C(=O)O)c2ccc(-c3ccccc3)cc2)cc1 (centres unmarked)	86 @ 5 μM % BRL			-21
	Cc1oc(-c2ccccc2)nc1CCCc1ccc(CC(C(=O)O)c2ccccc2)cc1 (centres unmarked)		0.1122		
	Cc1oc(-c2ccccc2)nc1CC#Cc1ccc(CC(C(=O)O)c2cccc(-c3ccccc3)c2)cc1 (centres unmarked)	48 @ 5 μM % BRL			-3
5.85	O=C(O)[C@H](Cc1ccc(OCc2ccccc2F)cc1)n1cccc1		92	21	-46
5.25	COC(=O)[C@H](Cc1ccc(C#CCN(C)c2ccccn2)cc1)n1cccc1		38	29	71
	O=C(O)[C@H](Cc1ccc(OCCCc2ccncc2)cc1)n1cccc1		44	3	3
	CN(CC#Cc1ccc(CC(C(=O)O)n2cccc2)cc1)c1ccccn1 (centres unmarked)		71	6	-32
6.40	O=C(O)[C@H](Cc1ccc(OCCc2ccccc2C(F)(F)F)cc1)n1cccc1		80	112	-27
7.00	COC(=O)[C@H](Cc1ccc(C#CCc2nc(-c3ccccc3)oc2C)cc1)n1cccc1		123	90	-114
6.05	CN(C/C=C/c1ccc(C[C@@H](C(=O)O)n2cccc2)cc1)c1ccccn1		92	94	-36
	CN(CCCc1ccc(C[C@@H](C(=O)O)n2cccc2)cc1)c1ccccn1		64	113	
	Cc1oc(-c2ccccc2)nc1C/C=C/c1ccc(C[C@@H](C(=O)O)n2cccc2)cc1		94	76	

pEC50 [1]	SMILES	MKNRCV1 % BRL @ 5 μM [1]	MKNRCV1 % BRL @ 25 μM [1] [% BRL]	ADPDIFF % BRL @ 5 μM (3T3-L1 preadipocytes) [% BRL]	inhibition at 25 µM [2] [%]
	O=C(O)[C@H](Cc1ccc(OCCN2CCN(c3ccccc3)CC2)cc1)n1cccc1		32	82	-40
	O=C(O)[C@H](Cc1ccc(OCCn2c(-c3ccccc3)nc3ccccc32)cc1)n1cccc1		39	19	-69
	COC(=O)[C@H](Cc1ccc(CCCN(C)c2ccccc2)cc1)n1cccc1		71	73	-2
	CN(CCOc1ccc(C[C@@H](C(=O)O)n2cccc2)cc1)c1ccnc2cc(Cl)ccc12		83	1	-87
6.15	COC(=O)[C@H](Cc1ccc(/C=C/CN(C)c2ccccc2)cc1)n1cccc1		96	110	2
5.77	CN(C/C=C/c1ccc(C[C@@H](C(=O)O)n2cccc2)cc1)c1ccccc1		79		-29
	Cc1oc(-c2ccccc2)nc1CCNc1ccc(C[C@@H](C(=O)O)n2cccc2)cc1		157		
	COC(=O)[C@H](Cc1ccc(/C=C/CN2CCC(c3ccccc3)CC2)cc1)n1cccc1		47	32	25
	CC(=O)c1cccn1[C@@H](Cc1ccc(OCc2ccccc2F)cc1)C(=O)O		25	3	-40
	Cc1ccc(C)n1[C@@H](Cc1ccc(OCc2ccccc2F)cc1)C(=O)O		34	2	
	Cc1ccc(-c2ccccc2)n1[C@@H](Cc1ccc(OCc2ccccc2F)cc1)C(=O)O		30	2	-44
	O=C(O)[C@H](Cc1ccc(OCc2ccccc2F)cc1)n1cccc1C(=O)C(F)(F)F		18	14	28
4.95	CN(CCOc1ccc(CC(C(=O)O)n2ccc(C(=O)C3CCCCC3)c2)cc1)c1nc2ccccc2o1 (centres unmarked)		65	112	4
	O=C(c1ccn(C(Cc2ccc(OCc3ccccc3F)cc2)C(=O)O)c1)C1CCCCC1 (centres unmarked)		28	12	1
	CN(CCOc1ccc(CC(C(=O)O)n2ccc(-c3ccccc3)c2)cc1)c1nc2ccccc2o1 (centres unmarked)		59	113	-41
6.00	Cc1cc(OCCc2nc(-c3ccccc3)oc2C)ccc1CC(C(=O)O)c1ccccc1 (centres unmarked)				
	Cc1nc(-c2ccc(C(F)(F)F)cc2)sc1CSc1ccc(OCC(=O)O)cc1		70		-58
5.89	Cc1oc(-c2ccccc2)nc1CCOc1ccc(CC[C@@H](C(=O)O)n2cccc2)cc1	82 @ 5 μM % BRL			62
5.44	Cc1oc(-c2ccccc2)nc1CCOc1ccc([C@@H](C(=O)O)n2cccc2)cc1	47 % BRL	57		39
	Cc1oc(-c2ccccc2)nc1CCOc1ccc([C@@H](C(=O)O)n2cccc2C(=O)c2ccccc2)cc1	39 % BRL	58		-5
	Cc1cc(-c2cc(O)c(Sc3cccc(C(=O)O)c3)oc2=O)ccc1OCc1ccccc1	26 @ 5 μM % BRL			-29
	Cc1oc(-c2ccccc2)nc1CCOc1ccc(CC(C(=O)O)c2nc(-c3ccccc3)oc2C)cc1 (centres unmarked) [drawing 261]	110 @ 5 μM % BRL			18
5.92	Cc1oc(-c2ccccc2)nc1CCOc1ccc(CC(C(=O)O)c2ccccc2)cn1 (centres unmarked) [drawing 262]				
	Cc1oc(-c2ccccc2)nc1CCC(=O)c1ccc(CC(C(=O)O)n2cccc2)cc1 (centres unmarked) [drawing 276]			3	
	Cc1oc(-c2ccccc2)nc1CCOc1ccc(CC(C(=O)O)c2ccccc2)cn1 (centres unmarked) [drawing 309]	75 @ 5 μM % BRL			-58
